Reference: patent publication US8633177B2, “Nitroxyl (HNO) releasing compounds and uses thereof in treating diseases” (The United States of America, as represented by the …, priority 2010, dated 2014)

Key:
caspase-3 = experiment: Caspase-3 fluorescence assay, MDA-MB-231; type: cell-based, human; conditions: 12 h
Description: The caspase-3 activity in the presence of IPA/NO-ASA and DEA/NO-ASA was measured using caspase-3 fluorescence assay kit (Cat No. 10009135, Cayman Chemical). Cells were plated at a concentration of 50,000 cells per well in a 96 well plate and grown overnight. Then the cells were treated with different concentrations of the compounds and controls for 12 h. After 12 h, the plate was centrifuged at 800 g and the media was removed by aspiration. 100 μL of lysis buffer was added to each well and the plate was incubated for […] at room temperature. 100 μL of a caspase-3 substrate solution was added to each well and incubated for 30 min after which the fluorescence was read at excitation of 485 nm and emission of 535 nm.

breast cancer cells = experiment: MTT cell survival, breast cancer cells (cell line not given); type: cell-based, human; conditions: 48 h of treatment, cell line not named
Description: (§1) The effect of NONO-aspirin on cell proliferation was studied using an MTT assay. The effect of DEA/NO-ASA, IPA/NO-ASA, aspirin, IPA/NO and DEA/NO was measured using the MTT assay. Cells were plated at a concentration of 8,000-10,000 cells per well in a 96 well plate and grown overnight. Cells were treated with different concentrations of the compounds and controls for 48 h. After 48 h, a solution of 5 mg/ml MTT was added to each well and incubated for 1 h. Then the media was removed from each well and 100 uL DMSO was added to each well and the absorbance was read at 550 nm. Inhibition of growth with different treatments was reported as percentage of corresponding control.

MB-231 cells = experiment: MTT cell survival, MDA-MB-231; type: cell-based, human; conditions: MTT assay
Description: (§2) MDA-MB-231, MCF-7 and MDA-MB-468, human breast carcinoma cell lines and MCF-10A, breast […] (American Type Culture Collection, Manassas, Va.) were grown as monolayers in RPMI 1640 supplemented with 10% FCS (Hyclone), penicillin (50 units/ml), streptomycin ([…]; Life Technologies, Inc., Grand Island, N.Y.) and endothelial growth media (Lonanza) respectively. Cells were seeded at a density of 1×10^6 cells/100-cm^2 culture dish and incubated at 37° C. in 5% CO2 and 80% relative humidity. Single-cell suspensions were obtained by trypsinization (0.05% trypsin/EDTA), and cells were counted using a Beckman cell counter.
(§3) 1000× stock solutions aspirin, of a DEA/NO-ASA, and IPA/NO-ASA were made in DMSO and final concentration in the media or PBS was adjusted to 0.1% DMSO.
as §1, with “Inhibition of growth with different treatments was reported as percentage of corresponding control.” left out

E-cadherin = E-cadherin expression in MDA-MB-231 cells; type: cell-based, human; conditions: MDA-MB-231, 100 μM, mRNA and protein level
Description: MDA-MB-231 cells were plated at a concentration of 500,000 cells per plate on 60 mm plate and grown overnight. They were then treated with 100 μM of IPA/NO-aspirin, DEA/NO-aspirin, IPA/NO, DEA/NO and aspirin for 1 to 24 h.

MB-468 cells = experiment: MTT cell survival, MDA-MB-468; type: cell-based, human; conditions: MTT assay
Description: as §2, §3
as §1, with “Inhibition of growth with different treatments was reported as percentage of corresponding control.” left out

[1] = system: reactive oxygen species (ROS); experiment: ROS level with DCF; type: cell-based; conditions: 100 μM
Description: To investigate the role of ROS in apoptosis, the ROS level was studied in the presence of the compounds in a time dependent manner using 2′,7′-dichlorofluorescein (DCF) in all four cell lines. Cells were plated at a concentration of 30,000 cells per well and grown overnight. Cells were treated with 100 μM DCF (Sigma Aldrich) and incubated for 30 min at 37° C. The cells were then washed five times with PBS pH 7.4 and 100 μM of IPA/NO-aspirin, DEA/NO-aspirin, IPA/NO, DEA/NO and aspirin were added.

[2] = biological target: T1, glyceraldehyde-3-phosphate dehydrogenase (GAPDH) (Homo sapiens, UniProt P04406); experiment: GAPDH activity, MCF-7; type: cell-based; design: endogenous in cells; host or cells: MDA-MB-231, MDA-MB-468, MCF-7, MCF-10A; conditions: MCF-7, 100 μM
Description: (§4) Cells were plated at a concentration of 30,000 cells per well and grown overnight. Cells were treated with 100 μM IPA/NO-aspirin and DEA/NO-aspirin for 1, 3, and 6 h after which 200 μL of KDalert lysis buffer was added to each well. The plate was incubated at 4° C. for 20 min to lyse the cells. 10 μL of cell lysate was transferred to a clean 96 well plate and 90 μL of KDalert mastermix was added to each well and the fluorescence was measured at excitation of 540 nm and emission of 570 nm.

A549 cells = experiment: MTT proliferation assay, A549 cells; type: cell-based; conditions: 48 h
Description: The effect of compounds 4 and 8 was studied on proliferation of A549 cells by 3-(4,5-Dimethylthiazol-2-yl)-2,5-diphenyltetrazolium bromide (MTT) assay. Cells were plated at a concentration of 10,000 cells per well in a 96 well plate and grown overnight. Then the cells were treated with different concentration of the compounds and controls for 48 h. After 48 h, a solution of 2 mg/ml MTT was added to each well and incubated for 1 hr. The media was then removed from each well and 100 μL DMSO was added to each well and the absorbance was recorded at 550 nm.

[3] = biological target: T1, glyceraldehyde-3-phosphate dehydrogenase (GAPDH); experiment: GAPDH activity, MCF-10A; type: cell-based; design: endogenous in cells; conditions: MCF-10A cell line
Description: as §4

T1 sequence (P04406 whole entry): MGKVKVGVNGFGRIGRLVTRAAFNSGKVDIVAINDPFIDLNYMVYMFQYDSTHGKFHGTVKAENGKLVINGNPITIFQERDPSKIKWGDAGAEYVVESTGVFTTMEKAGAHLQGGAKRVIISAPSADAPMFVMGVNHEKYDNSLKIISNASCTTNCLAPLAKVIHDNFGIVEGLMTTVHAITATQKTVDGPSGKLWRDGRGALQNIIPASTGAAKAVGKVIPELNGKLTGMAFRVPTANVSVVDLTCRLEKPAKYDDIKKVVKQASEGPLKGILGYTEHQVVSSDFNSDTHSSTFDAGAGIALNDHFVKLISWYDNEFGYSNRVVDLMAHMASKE

SMILES	Caspase-3 Activity (caspase-3; MDA-MB-231, 25 μM)	Caspase-3 Activity (caspase-3; MDA-MB-231, 50 μM)	Caspase-3 Activity (caspase-3; MDA-MB-231, 100 μM)	IC50 (breast cancer cells)	IC50 (MB-231 cells)	E-cadherin level (E-cadherin)	IC50 (MB-468 cells)	ROS level [1]	GAPDH Activity ([2]; 1 h)	GAPDH Activity ([2]; 3 h)	GAPDH Activity ([2]; 6 h)	toxicity in MTT assay (A549 cells)	GAPDH Activity [3]
CCN(CC)[N+]([O-])=NOCOC(=O)c1ccccc1OC(C)=O [DEA/NO-aspirin, O^2-(Acetylsalicyloyloxymethyl)-1-(N,N-Diethylamino)-diazen-1-ium-1,2-diolate]	0.25 U/mL	0.24 U/mL	0.31 U/mL	75 µM	90 µM	increased E-cadherin expression	85 µM	much lower	0.080 U/mL	0.110 U/mL	0.130 U/mL		
CC(=O)Oc1ccccc1C(=O)OCON=[N+]([O-])NC(C)C [IPA/NO-aspirin, O^2-(Acetylsalicyloyloxymethyl)-1-(N-isopropylamino)-diazen-1-ium-1,2-diolate]	0.40 U/mL	0.48 U/mL	0.55 U/mL	50 µM	95 µM	did not show any significant change	80 µM	significant increase in ROS level	<0.010 U/mL	<0.010 U/mL	<0.010 U/mL	slightly higher toxicity than compound 8	did not inhibit GAPDH activity
